From publication PMC10141580, “Cyclic Dichalcogenides Extend the Reach of Bioreductive Prodrugs to Harness Thiol/Disulfide Oxidoreductases: Applications to seco-Duocarmycins Targeting the Thioredoxin System” (ACS Central Science, 2023)
Read-outs that look alike come from different tables or passages of the source.

Test system: panel of 140 standard cancer cell lines
Experiment: ProliFiler-140 cancer cell line screen (CellTiterGlo, 72 h)
Assay type: cell-based
Method: Incubations were performed for 72 h before automated viability readout with CellTiterGlo (Figure 8).
End of Figure S11 (part 5 of 5): ProliFiler-140 cancer cell line screening for cytotoxicity of the prodrugs.
8-data-point dose response curves from CellTiter-Glo® viability readout.
ProliFiler-140 cell line panel part V

COc1cc2cc(C(=O)N3C[C@@H](CCl)c4c3cc(OC(=O)N3CCN(C(=O)CCC(=O)N5CCN(C)CC5)[C@H]5CSSC[C@H]53)c3ccccc43)[nH]c2c(OC)c1OC [P-SS66C-CBI-TMI]
IC50 (read-out: IC50 [M] (ProliFiler-140), BxPC-3 (Pancreas)): 4.6e-08 M | IC50 (read-out: IC50 [M] (ProliFiler-140), COR-L279 (Lung)): 7.23e-09 M | IC50 (read-out: IC50 [M] (ProliFiler-140), COV434 (Ovary)): 1.48e-08 M | IC50 (read-out: IC50 [M] (ProliFiler-140), Calu-6 (Lung)): 5.9e-08 M | IC50 (read-out: IC50 [M] (ProliFiler-140), Colo 205 (Colon)): 8.61e-08 M | IC50 (read-out: IC50 [M] (ProliFiler-140), DU-145 (Prostate)): 1.62e-08 M | IC50 (read-out: IC50 [M] (ProliFiler-140), EFM-19 (Breast)): 3.12e-07 M | IC50 (read-out: IC50 [M] (ProliFiler-140), EFO-27 (Ovary)): 6.19e-08 M | IC50 (read-out: IC50 [M] (ProliFiler-140), EPLC-272H (Lung)): 4.6e-08 M | IC50 (read-out: IC50 [M] (ProliFiler-140), H460 (Lung)): 5.51e-09 M | IC50 (read-out: IC50 [M] (ProliFiler-140), H1299 (Lung)): 5.4e-08 M | IC50 (read-out: IC50 [M] (ProliFiler-140), H2228 (Lung)): 4.5e-08 M | IC50 (read-out: IC50 [M] (ProliFiler-140), HCC202 (Breast)): 9.13e-08 M | IC50 (read-out: IC50 [M] (ProliFiler-140), HCC827 (Lung)): 9.11e-08 M | IC50 (read-out: IC50 [M] (ProliFiler-140), HEC-1-B (Endometrium)): 3.99e-07 M | IC50 (read-out: IC50 [M] (ProliFiler-140), HL-60 (Blood)): 1.52e-08 M | IC50 (read-out: IC50 [M] (ProliFiler-140), HT-29 (Colon)): 1.05e-07 M | IC50 (read-out: IC50 [M] (ProliFiler-140), HT-1080 (Fibrosarcoma)): 2.1e-08 M | IC50 (read-out: IC50 [M] (ProliFiler-140), HeLa (Ovary)): 9.9e-09 M | IC50 (read-out: IC50 [M] (ProliFiler-140), Hep3B2.1-7 (Liver)): 1.72e-07 M | IC50 (read-out: IC50 [M] (ProliFiler-140), Hs 746T (Stomach)): 7.52e-08 M | IC50 (read-out: IC50 [M] (ProliFiler-140), Hutu 80 (Duodenum)): 9.6e-09 M | IC50 (read-out: IC50 [M] (ProliFiler-140), Ishikawa (Endometrium)): 3.84e-09 M | IC50 (read-out: IC50 [M] (ProliFiler-140), J82 (Bladder)): 9.6e-08 M | IC50 (read-out: IC50 [M] (ProliFiler-140), JIMT-1 (Breast)): 1.04e-07 M | IC50 (read-out: IC50 [M] (ProliFiler-140), JVM-3 (Blood)): 3.4e-09 M | IC50 (read-out: IC50 [M] (ProliFiler-140), Jurkat (Blood)): 6.2e-09 M | IC50 (read-out: IC50 [M] (ProliFiler-140), K562 (Blood)): 1.29e-07 M | IC50 (read-out: IC50 [M] (ProliFiler-140), KG-1 (Blood)): 1.9e-07 M | IC50 (read-out: IC50 [M] (ProliFiler-140), LOU-NH91 (Lung)): 3.45e-08 M | IC50 (read-out: IC50 [M] (ProliFiler-140), LP-1 (Blood)): 1.04e-07 M | IC50 (read-out: IC50 [M] (ProliFiler-140), LnCap (Prostate)): 2.75e-08 M | IC50 (read-out: IC50 [M] (ProliFiler-140), MCF-7 (Breast)): 3.05e-08 M | IC50 (read-out: IC50 [M] (ProliFiler-140), MDA-MB-468 (Breast)): 1.87e-08 M | IC50 (read-out: IC50 [M] (ProliFiler-140), MEC-1 (Blood)): 1.08e-08 M | IC50 (read-out: IC50 [M] (ProliFiler-140), MKN-1 (Stomach)): 1.38e-07 M | IC50 (read-out: IC50 [M] (ProliFiler-140), MOLM-13 (Blood)): 5.25e-09 M | IC50 (read-out: IC50 [M] (ProliFiler-140), MOLT-4 (Blood)): 8.62e-09 M | IC50 (read-out: IC50 [M] (ProliFiler-140), MV4-11 (Blood)): 1.54e-09 M | IC50 (read-out: IC50 [M] (ProliFiler-140), NALM-6 (Blood)): 2.5e-09 M | IC50 (read-out: IC50 [M] (ProliFiler-140), NCI-H82 (Lung)): 8.78e-08 M | IC50 (read-out: IC50 [M] (ProliFiler-140), NCI-H292 (Lung)): 3.77e-08 M | IC50 (read-out: IC50 [M] (ProliFiler-140), NCI-H838 (Lung)): 7.44e-08 M | IC50 (read-out: IC50 [M] (ProliFiler-140), NCI-H1048 (Lung)): 3.97e-09 M | IC50 (read-out: IC50 [M] (ProliFiler-140), NCI-H1563 (Lung)): 1.14e-07 M | IC50 (read-out: IC50 [M] (ProliFiler-140), NCI-H1573 (Lung)): 8.97e-08 M | IC50 (read-out: IC50 [M] (ProliFiler-140), NCI-H1581 (Lung)): 4.7e-08 M | IC50 (read-out: IC50 [M] (ProliFiler-140), NCI-H1703 (Lung)): 5.11e-08 M | IC50 (read-out: IC50 [M] (ProliFiler-140), NCI-H2110 (Lung)): 1.81e-08 M | IC50 (read-out: IC50 [M] (ProliFiler-140), NCI-H2286 (Lung)): 1.67e-08 M | IC50 (read-out: IC50 [M] (ProliFiler-140), NCI-N87 (Stomach)): 7.55e-08 M | IC50 (read-out: IC50 [M] (ProliFiler-140), OCI-AML3 (Blood)): 1.32e-08 M | IC50 (read-out: IC50 [M] (ProliFiler-140), OCI-AML5 (Blood)): 5.98e-09 M | IC50 (read-out: IC50 [M] (ProliFiler-140), OCI-LY19 (Blood)): 2.8e-09 M | IC50 (read-out: IC50 [M] (ProliFiler-140), OPM-2 (Blood)): 2.6e-08 M | IC50 (read-out: IC50 [M] (ProliFiler-140), OV56 (Ovary)): 7.2e-08 M | IC50 (read-out: IC50 [M] (ProliFiler-140), OVCAR-3 (Ovary)): 7.88e-08 M | IC50 (read-out: IC50 [M] (ProliFiler-140), OVK18 (Ovary)): 4.6e-08 M | IC50 (read-out: IC50 [M] (ProliFiler-140), P31/FUJ (Blood)): 2.25e-08 M | IC50 (read-out: IC50 [M] (ProliFiler-140), PC3 (Prostate)): 4e-08 M | IC50 (read-out: IC50 [M] (ProliFiler-140), PC-9 (Lung)): 1.41e-08 M | IC50 (read-out: IC50 [M] (ProliFiler-140), RERF-LC-Ad2 (Lung)): 1.42e-07 M | IC50 (read-out: IC50 [M] (ProliFiler-140), RKO (Colon)): 2.1e-08 M | IC50 (read-out: IC50 [M] (ProliFiler-140), SCH (Stomach)): 1.52e-08 M | IC50 (read-out: IC50 [M] (ProliFiler-140), SCLC-21H (Lung)): 2.6e-08 M | IC50 (read-out: IC50 [M] (ProliFiler-140), SK-ES-1 (Bone)): 2.7e-09 M | IC50 (read-out: IC50 [M] (ProliFiler-140), SK-MEL-3 (Skin)): 1.55e-07 M | IC50 (read-out: IC50 [M] (ProliFiler-140), SK-N-MC (Brain)): 1.61e-09 M | IC50 (read-out: IC50 [M] (ProliFiler-140), SK-N-SH (Brain)): 1.15e-07 M | IC50 (read-out: IC50 [M] (ProliFiler-140), SK-OV3 (Ovary)): 3.7e-08 M | IC50 (read-out: IC50 [M] (ProliFiler-140), SNU-1 (Stomach)): 2.27e-08 M | IC50 (read-out: IC50 [M] (ProliFiler-140), SNU-216 (Stomach)): 9.2e-08 M | IC50 (read-out: IC50 [M] (ProliFiler-140), SU-DHL-5 (Blood)): 2.55e-09 M | IC50 (read-out: IC50 [M] (ProliFiler-140), SW480 (Colon)): 5.5e-08 M | IC50 (read-out: IC50 [M] (ProliFiler-140), SW-1783 (Brain)): 4.8e-08 M | IC50 (read-out: IC50 [M] (ProliFiler-140), Saos-2 EC (Bone)): 6.6e-08 M | IC50 (read-out: IC50 [M] (ProliFiler-140), T98G (Brain)): 8.1e-08 M | IC50 (read-out: IC50 [M] (ProliFiler-140), T-47D (Breast)): 9.75e-08 M | IC50 (read-out: IC50 [M] (ProliFiler-140), U118MG (Brain)): 1.9e-07 M | IC50 (read-out: IC50 [M] (ProliFiler-140), U251MG (Brain)): 1.18e-07 M | IC50 (read-out: IC50 [M] (ProliFiler-140), U-266 (Blood)): 9.4e-09 M | IC50 (read-out: antiproliferative IC50 range, range over 140 cell lines): 1e-09 to 1e-07 M | Reductive Activation Index (span over ProliFiler-140 cell lines): up to 30 fold
